Key:
[1] = tested on: primary B cells infected with EBV B95-8; test: EBV-driven B cell transformation efficiency assay (LCL outgrowth); assay type: cell-based, human; settings: for restoration of EBV's capacity to latently infect/transform B cells in the presence of BMS-986205: 10 μM BMS-986205 plus 50 μM L-KYNU or 500 μM NaMN, added day 0; for rescue of the capacity of EBV to transform IDO1-blocked B cells: summary statement, added together with IDO1 inhibitor
Procedure: Transformation efficiency was analyzed 5 weeks post infection and plotted against the added multiplicity of infection (MOI).
Data are represented as median value of indicated individual data points (n=4 independent experiments) relative to Ctrl siRNA (set at one), and compared using two-tailed Student's t-test.
An IDO1 inhibitor as disclosed herein can inhibit B cell transformation. Preferably, an IDO1 inhibitor as disclosed herein can inhibit EBV-induced B cell transformation. Transformation can be analysed by methods known in the art, for example using a transformation efficiency assay. In this assay B cells are seeded into a cell culture plate and infected with increasing virus concentrations. An IDO1 inhibitor can be added immediately after infection. After an incubation period of 5 weeks, the number of wells positive for LCL outgrowth are counted. Alternatively, any other suitable assay can be used. Suitably, an IDO1 inhibitor as disclosed herein can inhibit B cell transformation at a concentration of about 200 μM or less, about 150 μM or less, about 100 μM or less, about 50 μM or less, about 20 μM or less, about 15 μM or less, about 10 μM or less, about 5 μM or less, or about 1 μM or less, preferably about 100 μM or less or about 10 μM or less in the assays described herein. An IDO1 inhibitor as disclosed herein can be any one of the IDO inhibitors as disclosed herein that can inhibit B cell transformation, preferably EBV-induced B cell transformation.
Bulk B cells were seeded at a final concentration of 1×10^6 cells/ml in LCM-10 medium in a 96-well round bottom plate and infected with increasing concentration of EBV B95-8 (MOI 1×10^3-1×10^−4) by spinoculation. […] 5 weeks post-infection the number of wells with morphologic changes of transformation was counted and plotted as percentage of wells positive for LCL outgrowth against virus concentration in MOI.

[2] = tested on: primary B cells infected with EBV B95-8; test: EBV-driven B cell proliferation, CellTrace Violet flow cytometry assay; assay type: cell-based, human; settings: different BMS-986205 concentrations added at 0 hpi; analyzed 8 days post infection; vs vehicle
Procedure: Proliferation was analyzed in the presence of vehicle or different BMS-986205 concentrations added on day 0 post EBV-infection of primary B cells (n=2). Uninfected and h.i. EBV infected cells served as internal controls. Proliferation was analyzed 8 days post infection by flow cytometry using a cell trace violet based assay.
Bulk B cells were stained with CellTraceTM Violet (Cell Proliferation Kit, ThermoFisher) then infected with EBV B95-8 as described above. Proliferation was assessed by determining the number of proliferated cells (cells that had proliferated at least once after infection) with IDO1 inhibitor/number of proliferated cells with vehicle control.

EBV = EBV viral loads in blood and spleen, humanized mouse model (Taqman real-time PCR); assay type: in vivo, humanized NSG mice
Procedure: […]. Data are shown as median values from the indicated individual measurements, compared using two-tailed Student's t-test.
(§1) Median values from the indicated individual measurements are shown, compared using two-tailed Student's t-test.
(§2) A humanized mouse model of EBV infection was then used to directly interrogate the role of IDO1 in EBV-driven immune dysregulation and lymphomagenesis. Briefly, NSG mice (Jackson Laboratory, Bar Harbor, ME, USA) were injected with human hematopoietic progenitor cells shortly after birth, and reconstitution with human immune system components was confirmed at 3-4 months of age (data not shown). […]. Efficacy of Epacadostat-mediated IDO1 inhibition was verified by quantifying tryptophan and L-kynurenine plasma levels (FIG. 10). EBV viral loads were assessed in DNA preparations from whole blood at week 2, 3, 4, and 5 pi, and in the spleen at the day of sacrifice, using Taqman real-time PCR with modified primers (5′-[…]-3′ and 5′-[…]-3′) and a fluorogenic probe (5′-FAM […]-TAMRA-3′) to detect the conserved EBV BamHI-W fragment. Samples were analyzed in triplicates and run on a CFX384 Touch Real-time PCR Detection System (Bio-Rad). DNA from whole blood was extracted with the NucliSENS EasyMAG System (Biornerieux) and DNA from splenic tissues was isolated using the DNeasy Blood and Tissue kit (QIAGEN), according to the manufacturer's recommendations.

EBV-positive tumors = test: EBV-positive tumor burden, humanized mouse model of EBV infection; assay type: in vivo, humanized NSG mice; settings: Epacadostat i.p. vs vehicle, n=10 each (FIG. 13A-13C); text concludes reduced lymphomagenesis
Procedure: […]. A Chi-Square test was used to compare groups.
(lower panels) are shown, stained with hematoxylin and eosin (HE) (left panels) and EBER FISH (right panels).
A Chi-Square test was used to compare groups. […].
as §2

IDO1 = IDO1 inhibition in humanized mouse model of EBV infection: tryptophan and L-kynurenine levels; assay type: in vivo, humanized NSG mice; settings: Epacadostat 200 mg/kg i.p.; d -7, day 2 and day 7 pi; vs vehicle (FIG. 10)
Procedure: Data are shown as box and whiskers (median, IQR and range) and compared by two-tailed Student's t-test.
as §2

CD8+ T cells = test: CD8+ T cell expansion, humanized mouse model of EBV infection; assay type: in vivo, humanized NSG mice; settings: Epacadostat i.p.
Procedure: as §1
Data are shown as medians and two-tailed Student's t-test was used to compare groups.
as §2

[3] = 5 weeks post infection (FIG. 6A)

## C[C@@H](C(=O)Nc1ccc(Cl)cc1)C1CCC(c2ccnc3ccc(F)cc23)CC1 (stereo partly shown) [BMS-986205]
[1]; 10 μM BMS-986205 added at 0 hpi, analyzed 5 weeks post infection, vs vehicle
  EBV driven B cell transformation: efficiently suppressed
[2]
  EBV driven B cell proliferation: inhibited in a dose-dependent manner

## NS(=O)(=O)NCCNc1nonc1C(=NO)Nc1ccc(F)c(Br)c1 [Epacadostat]
EBV; Epacadostat i.p., 5 weeks pi, vs vehicle-treated (FIG. 11B)
  splenic viral loads: borderline reduced
EBV; Epacadostat i.p., AUC of viral load 2-5 weeks pi, vs vehicle-treated (FIG. 11A)
  blood EBV load: efficiently reduced
EBV; treated throughout the experiment and also treated for only 2 weeks after infection (data not shown)
  effect on viral loads: observed
EBV-positive tumors
  effect on EBV-driven B cell tumorigenesis (macroscopic and microscopic tumor burden): equally clear
IDO1
  efficacy of IDO1 inhibition by tryptophan and L-kynurenine plasma levels: verified
CD8+ T cells; day of sacrifice (FIG. 12C)
  Splenic CD8VCD4^+ T cell ratios: remained unchanged
CD8+ T cells; week 0 to week 5 pi, vs vehicle (FIG. 12A and 12B)
  expansion of peripheral blood CD8+ T cells: prevented
[1]; 100 μM Epacadostat added at 0 hpi, 5 weeks post infection (FIG. 6B)
  transformation of EBV-infected B cells: efficiently suppressed

## Nc1ccccc1C(=O)C[C@H](N)C(=O)O [L-KYNU, L-Kynurenine]
[1]; [3]
  restoration of EBV's capacity to latently infect/transform B cells in the presence of BMS-986205: partially restored
[1]
  rescue of the capacity of EBV to transform IDO1-blocked B cells: partially and dose-dependently rescued

## O=C(O)c1ccc[n+]([C@@H]2O[C@H](COP(=O)(O)O)[C@@H](O)[C@H]2O)c1 [NaMN]
[1]; [3]
  restoration of EBV's capacity to latently infect/transform B cells in the presence of BMS-986205: fully restored
[1]; 10 μM BMS-986205 plus 500 μM NaMN, day 0, 5 weeks post infection (FIG. 6A)
  transformation efficiency compared to vehicle: slightly increased
[1]; 100 μM Epacadostat plus 500 μM NaMN, day 0, 5 weeks post infection (FIG. 6B)
  rescue of transformation of B cells in the presence of Epacadostat: fully rescued
[1]
  rescue of the capacity of EBV to transform IDO1-blocked B cells: fully rescue

Source: patent publication US20240091202A1, “COMPOSITIONS FOR THE TREATMENT OF EBV ASSOCIATED DISEASES OR CONDITIONS” (Universität Basel, priority 2021, published 2024)
